# Assay results as given in patent publication US11739064B2, “HDAC inhibitors and therapeutic methods using the same” (THE BOARD OF TRUSTEES OF THE UNIVERSITY OF ILLINOIS, priority 2015, dated 2023).
# How the values were obtained:
# HDAC3/NcoR2 complex = HDAC3/NcoR2 complex (Homo sapiens, UniProt O15379); experiment: In vitro HDAC inhibition assay, HDAC3; type: biochemical
# HDAC4 = HDAC4 (Homo sapiens, UniProt P56524); experiment: HDAC isoform inhibition, HDAC4; type: biochemical
# HDAC5 = HDAC5 (Homo sapiens, UniProt Q9UQL6); experiment: HDAC isoform inhibition, HDAC5; type: biochemical
# HDAC5, sequence (Q9UQL6 whole entry, canonical isoform): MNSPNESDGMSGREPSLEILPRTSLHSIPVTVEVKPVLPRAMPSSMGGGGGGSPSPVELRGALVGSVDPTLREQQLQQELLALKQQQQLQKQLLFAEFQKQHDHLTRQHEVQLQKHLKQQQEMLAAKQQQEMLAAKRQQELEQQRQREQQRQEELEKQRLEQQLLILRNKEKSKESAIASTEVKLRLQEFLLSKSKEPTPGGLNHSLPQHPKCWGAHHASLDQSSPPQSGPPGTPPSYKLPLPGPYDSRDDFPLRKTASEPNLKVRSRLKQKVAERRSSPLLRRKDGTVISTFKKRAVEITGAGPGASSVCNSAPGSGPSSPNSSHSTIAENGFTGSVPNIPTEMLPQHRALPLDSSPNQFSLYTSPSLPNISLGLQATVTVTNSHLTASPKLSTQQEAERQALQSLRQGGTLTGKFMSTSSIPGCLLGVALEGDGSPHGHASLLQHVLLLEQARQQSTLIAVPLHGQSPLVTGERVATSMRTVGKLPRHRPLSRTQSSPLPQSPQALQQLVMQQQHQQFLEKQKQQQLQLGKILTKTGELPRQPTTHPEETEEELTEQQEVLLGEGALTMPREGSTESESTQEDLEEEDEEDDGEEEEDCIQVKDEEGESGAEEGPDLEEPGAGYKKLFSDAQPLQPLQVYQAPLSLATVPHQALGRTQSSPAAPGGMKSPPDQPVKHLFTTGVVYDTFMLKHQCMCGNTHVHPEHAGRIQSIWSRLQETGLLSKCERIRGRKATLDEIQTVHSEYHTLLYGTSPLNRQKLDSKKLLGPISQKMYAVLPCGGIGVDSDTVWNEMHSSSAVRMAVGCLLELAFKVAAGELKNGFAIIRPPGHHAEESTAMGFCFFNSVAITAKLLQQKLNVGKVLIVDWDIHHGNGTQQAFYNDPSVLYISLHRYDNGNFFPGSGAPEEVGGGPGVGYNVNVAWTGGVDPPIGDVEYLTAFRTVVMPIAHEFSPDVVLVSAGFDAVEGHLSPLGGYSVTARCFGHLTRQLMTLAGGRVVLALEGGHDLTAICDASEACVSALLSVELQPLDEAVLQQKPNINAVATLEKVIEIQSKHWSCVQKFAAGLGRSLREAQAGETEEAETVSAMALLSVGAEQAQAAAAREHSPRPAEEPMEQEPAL
# HDAC8 = target: T1, HDAC8 (Homo sapiens, UniProt Q9BY41); experiment: HDAC isoform inhibition, HDAC8; type: biochemical
# T1 sequence (Q9BY41 1-377): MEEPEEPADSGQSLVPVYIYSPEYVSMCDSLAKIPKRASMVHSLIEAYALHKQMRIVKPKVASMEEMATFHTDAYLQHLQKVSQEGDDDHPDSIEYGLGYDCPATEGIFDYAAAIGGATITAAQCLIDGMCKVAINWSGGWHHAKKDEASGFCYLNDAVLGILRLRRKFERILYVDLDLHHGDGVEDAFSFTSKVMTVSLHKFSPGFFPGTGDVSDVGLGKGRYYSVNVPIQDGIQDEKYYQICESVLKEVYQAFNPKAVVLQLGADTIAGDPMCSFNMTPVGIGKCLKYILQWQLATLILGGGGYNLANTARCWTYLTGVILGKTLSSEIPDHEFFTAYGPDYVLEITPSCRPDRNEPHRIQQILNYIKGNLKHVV
# HDAC9 = HDAC9 (Homo sapiens, UniProt Q9UKV0); experiment: HDAC isoform inhibition, HDAC9; type: biochemical
# HDAC9, sequence (Q9UKV0 whole entry, canonical isoform): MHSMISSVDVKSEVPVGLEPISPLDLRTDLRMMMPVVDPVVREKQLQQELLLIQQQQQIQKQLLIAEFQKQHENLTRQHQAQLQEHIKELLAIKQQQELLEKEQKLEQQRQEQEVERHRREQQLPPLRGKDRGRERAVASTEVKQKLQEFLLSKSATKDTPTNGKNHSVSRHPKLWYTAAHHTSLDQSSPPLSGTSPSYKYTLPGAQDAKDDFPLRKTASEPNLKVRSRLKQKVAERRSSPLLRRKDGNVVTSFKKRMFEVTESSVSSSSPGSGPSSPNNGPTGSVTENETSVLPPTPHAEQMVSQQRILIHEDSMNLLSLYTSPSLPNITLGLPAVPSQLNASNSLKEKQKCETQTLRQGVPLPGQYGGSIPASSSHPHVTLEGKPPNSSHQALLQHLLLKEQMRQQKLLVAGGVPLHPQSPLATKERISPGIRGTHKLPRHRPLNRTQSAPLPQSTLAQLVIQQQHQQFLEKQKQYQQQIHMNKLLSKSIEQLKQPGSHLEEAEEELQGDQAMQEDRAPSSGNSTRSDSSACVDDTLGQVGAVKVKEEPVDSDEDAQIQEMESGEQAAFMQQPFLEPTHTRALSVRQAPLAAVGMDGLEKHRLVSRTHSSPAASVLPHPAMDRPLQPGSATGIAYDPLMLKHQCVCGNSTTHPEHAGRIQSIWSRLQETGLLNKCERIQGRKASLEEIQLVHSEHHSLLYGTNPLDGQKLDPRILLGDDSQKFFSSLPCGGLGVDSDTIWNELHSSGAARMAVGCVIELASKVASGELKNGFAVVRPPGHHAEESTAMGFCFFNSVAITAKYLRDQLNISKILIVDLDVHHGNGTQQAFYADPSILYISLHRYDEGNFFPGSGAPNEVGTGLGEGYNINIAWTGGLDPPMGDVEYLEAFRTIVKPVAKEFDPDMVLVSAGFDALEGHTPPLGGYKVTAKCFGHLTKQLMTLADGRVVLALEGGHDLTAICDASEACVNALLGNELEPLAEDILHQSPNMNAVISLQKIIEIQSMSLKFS
# BxPC3 = experiment: In vitro growth inhibition (GI), MTS cell proliferation assay (Table 5), BxPC3; type: cell-based; conditions: Homo sapiens, BXPC-3, 72 hours post-treatment
# PANC1 cells = experiment: Scratch-wound cell migration assay; type: cell-based; design: key to Inhibition of cell migration, 24 h / Inhibition of cell migration, 48 h: Level of inhibition (high to low): +++, ++ or +; Level of inhibition (high to low): +++, ++ or +; Level of inhibition (high to low): +++, ++ or +; no inhibition: −
# Method: FIG. 2 contains photographs of PANC1 cells treated with present compounds 9 and 6 taken 24 and 48 hours (post wounding) after a scratch was made through a confluent layer of cells; and
# PANC1 Cell migration and effect on T and NK Cells. The effect of HDAC6 inhibition on cell migration and cellular cytotoxicity was evaluated. […] Thus, these HDAC6-selective inhibitors could function well to block metastasis. However, in contrast to the effect observed on cell migration, none of the compounds tested affected CD8+ T cell or natural killer (NK) cell-mediated cytotoxicity, despite the ability of the compounds to substantially increase the levels of acetyl-tubulin in these cell lines.
# Human HDAC1 = Human HDAC1 (Homo sapiens, UniProt Q13547); experiment: In vitro HDAC inhibition assay, HDAC1; conditions: read-out: HDAC isoform IC50, HDAC1; NI = No inhibition at a concentration of 50 pM (footnote b)
# Human HDAC1, sequence (Q13547 whole entry, canonical isoform): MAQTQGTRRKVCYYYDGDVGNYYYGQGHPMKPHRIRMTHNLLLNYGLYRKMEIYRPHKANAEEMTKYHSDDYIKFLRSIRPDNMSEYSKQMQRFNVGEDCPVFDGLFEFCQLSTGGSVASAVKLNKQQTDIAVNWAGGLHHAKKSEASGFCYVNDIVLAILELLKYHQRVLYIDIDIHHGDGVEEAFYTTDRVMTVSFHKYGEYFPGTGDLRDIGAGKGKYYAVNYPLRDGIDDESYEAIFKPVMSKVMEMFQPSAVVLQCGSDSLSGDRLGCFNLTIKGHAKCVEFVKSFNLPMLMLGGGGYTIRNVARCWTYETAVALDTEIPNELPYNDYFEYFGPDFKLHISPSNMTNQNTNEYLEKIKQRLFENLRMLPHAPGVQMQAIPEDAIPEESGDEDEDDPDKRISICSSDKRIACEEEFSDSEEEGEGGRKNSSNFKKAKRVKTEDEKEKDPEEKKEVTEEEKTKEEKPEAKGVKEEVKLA
# HDAC3/NcoR2 complex, sequence (O15379 whole entry, canonical isoform): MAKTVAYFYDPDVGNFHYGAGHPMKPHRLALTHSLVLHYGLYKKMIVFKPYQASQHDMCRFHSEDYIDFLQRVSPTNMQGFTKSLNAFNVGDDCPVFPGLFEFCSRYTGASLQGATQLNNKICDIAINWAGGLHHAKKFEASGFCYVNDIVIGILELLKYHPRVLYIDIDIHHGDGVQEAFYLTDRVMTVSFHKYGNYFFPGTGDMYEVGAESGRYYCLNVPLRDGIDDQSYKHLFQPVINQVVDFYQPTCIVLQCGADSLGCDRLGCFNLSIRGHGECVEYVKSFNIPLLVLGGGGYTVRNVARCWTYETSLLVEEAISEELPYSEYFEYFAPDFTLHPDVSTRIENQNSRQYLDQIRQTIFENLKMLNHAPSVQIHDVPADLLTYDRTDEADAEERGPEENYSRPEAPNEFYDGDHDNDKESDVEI
# HDAC3/NcoR2 complex, sequence (Q9Y618 395-489 partner limits assumed): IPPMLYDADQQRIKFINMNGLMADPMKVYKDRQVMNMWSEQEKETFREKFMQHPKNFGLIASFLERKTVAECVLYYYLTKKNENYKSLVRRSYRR
# HDAC4, sequence (P56524 whole entry, canonical isoform): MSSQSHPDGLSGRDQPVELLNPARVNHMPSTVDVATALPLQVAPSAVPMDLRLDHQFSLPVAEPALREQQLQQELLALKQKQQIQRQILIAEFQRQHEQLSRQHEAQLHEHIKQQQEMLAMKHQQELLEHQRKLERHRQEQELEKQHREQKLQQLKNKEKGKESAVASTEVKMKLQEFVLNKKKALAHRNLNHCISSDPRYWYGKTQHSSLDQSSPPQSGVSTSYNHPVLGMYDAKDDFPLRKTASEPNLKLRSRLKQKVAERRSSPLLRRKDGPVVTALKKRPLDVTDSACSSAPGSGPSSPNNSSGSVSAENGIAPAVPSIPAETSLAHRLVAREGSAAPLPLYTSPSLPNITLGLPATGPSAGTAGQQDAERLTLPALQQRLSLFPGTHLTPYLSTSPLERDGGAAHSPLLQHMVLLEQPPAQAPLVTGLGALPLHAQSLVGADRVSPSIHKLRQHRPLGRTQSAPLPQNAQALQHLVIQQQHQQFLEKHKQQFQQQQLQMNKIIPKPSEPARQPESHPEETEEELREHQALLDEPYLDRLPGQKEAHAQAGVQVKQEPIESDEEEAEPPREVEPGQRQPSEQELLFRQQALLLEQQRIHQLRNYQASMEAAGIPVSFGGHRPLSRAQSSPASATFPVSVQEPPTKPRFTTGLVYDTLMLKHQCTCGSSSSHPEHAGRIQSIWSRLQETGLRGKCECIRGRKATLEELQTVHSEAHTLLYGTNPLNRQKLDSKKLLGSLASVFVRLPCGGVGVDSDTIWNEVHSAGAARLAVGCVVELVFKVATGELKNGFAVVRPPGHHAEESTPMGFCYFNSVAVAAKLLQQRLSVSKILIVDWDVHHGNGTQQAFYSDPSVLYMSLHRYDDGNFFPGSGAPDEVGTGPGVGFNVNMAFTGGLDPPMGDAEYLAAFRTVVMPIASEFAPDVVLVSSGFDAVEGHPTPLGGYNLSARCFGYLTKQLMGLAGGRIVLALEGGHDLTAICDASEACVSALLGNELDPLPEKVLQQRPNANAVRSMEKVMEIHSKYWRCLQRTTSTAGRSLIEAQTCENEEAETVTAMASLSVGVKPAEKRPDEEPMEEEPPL
structure (smiles),measurement,setting,value
"CC(C)(C)OC(=O)Nc1ccc(-c2cc(C(=O)NCCc3cc(C(=O)NO)no3)no2)cc1 [Compound 6, (4-{3-[2-(3-Hydroxycarbamoyl-isoxazol-5-yl)-ethylcarbamoyl]-isoxazol-5-yl}-phenyl)-carbamic acid tert-butyl ester]",Selectivity for HDAC6 (fold) over HDAC3,HDAC3/NcoR2 complex,3800 fold
same,IC50,"HDAC3/NcoR2 complex; NI = No inhibition at a concentration of 50 pM (footnote b), read-out: HDAC isoform IC50, HDAC3",22.8 µM
same,IC50,HDAC4,130 µM
same,Selectivity for HDAC6 (fold) over HDAC4,HDAC4,21600 fold
same,IC50,HDAC5,34.5 µM
same,Selectivity for HDAC6 (fold) over HDAC5,HDAC5,5750 fold
same,IC50,HDAC8,0.81 µM
same,Selectivity for HDAC6 (fold) over HDAC8,HDAC8,135 fold
same,IC50,HDAC9,12.8 µM
same,Selectivity for HDAC6 (fold) over HDAC9,HDAC9,2130 fold
same,GI50,BxPC3,29 µM
same,"Inhibition of cell migration, 24 h","PANC1 cells; PANC1, 24 h post wounding",+
same,"Inhibition of cell migration, 48 h","PANC1 cells; PANC1, 48 h post wounding",−
same,Effect on PANC1 cell migration,PANC1 cells; compared to diluent-treated control cells,partial effect
same,IC50,Human HDAC1,16.9 µM
